The values that follow come from US6472348B1, “Pyridone derivatives and herbicides” (Kumiai Chemical Industry Co., Ltd., priority 1996, dated 2002).

Each structure is given as a SMILES string.

Common to all, as to type: in vivo
One series deals with China jute (Ab). The experiment in a line: Test Example 4: crop plant selectivity by upland field soil treatment (cotton), herbicidal effects. Also on record: scale not given here. The note with it: evaluated 21st day after application. An outline of the steps: (§1)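 Weeds and cotton, sown in sand and topped with soil, received a soil-applied treatment. Evaluation after three weeks in a greenhouse followed a standard rating scale.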

Series [1] relates to slender amaranth (Am). The description is as above. The note with it: evaluated 21st day after application. Also on record: scale not given here. The essentials:
as §1

A further series concerns green foxtail (Se). The series is described as above. Also noted: scale not given here. The settings on record: evaluated 21st day after application. An outline of the steps: as §1
The test system of another series is rice flatsedge (Ci). The experiment in a line: Test Example 2: herbicidal effects by upland field soil treatment.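 Note: grade of growth control; 5 = at least 90%; 4 = 70 to 90%; 3 = 50 to 70%; 2 = 30 to 50%; 1 = 10 to 30%; 0 = under 10%.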 The note with it: 100 g of the active ingredient per 10 ares, evaluated on the 21st day after application. The text has this: (§2) (Test on Herbicidal Effects by Upland Field Soil Treatment)
For the next series, the system named is pale smartweed (Po). The series is described as above. The note with it: 100 g of the active ingredient per 10 ares, evaluated on the 21st day after application.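 Note: grade of growth control; 5 = at least 90%; 4 = 70 to 90%; 3 = 50 to 70%; 2 = 30 to 50%; 1 = 10 to 30%; 0 = under 10%.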
Text: as §2

For series [2], the system named is slender amaranth (Am). Described as above. The note with it: 100 g of the active ingredient per 10 ares, evaluated on the 21st day after application.
Text: as §2

A further series relates to barnyardgrass (Ec). The description is as above. The note with it: 100 g of the active ingredient per 10 ares, evaluated on the 21st day after application.
Text: as §2

Series [3] concerns common lambsquarters (Ch). Described as above. The note with it: 100 g of the active ingredient per 10 ares, evaluated on the 21st day after application.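 Note: grade of growth control; 5 = at least 90%; 4 = 70 to 90%; 3 = 50 to 70%; 2 = 30 to 50%; 1 = 10 to 30%; 0 = under 10%.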
Text: as §2

For another series, the system named is Digitaria ciliaris (Di). The description is as above. The note with it: 100 g of the active ingredient per 10 ares, evaluated on the 21st day after application.
Text: as §2

The test system of the next series is corn (Ze). The experiment in a line: Test Example 7: crop plant selectivity by upland field soil treatment (corn), phytotoxicity. Also noted: scale not given here. The note with it: 21st day after application. The essentials:
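Values are ratings of herbicidal effect and phytotoxicity on a standard scale, taken 21 days after application. Test species were sown together with corn in sand-filled pots, covered with soil, and grown in a greenhouse.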
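Throughout, for Herbicidal effects Ec: grade of growth control; 5 = at least 90%; 4 = 70 to 90%; 3 = 50 to 70%; 2 = 30 to 50%; 1 = 10 to 30%; 0 = under 10%.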

On to `CCON=Cc1cc(-c2ccc(C(F)(F)F)n(C)c2=O)c(F)cc1Cl` [Compound 1-187], for which the “Herbicidal effects Ab” value with China jute (Ab) (dose 6.3 g ai/10 a) is reported as 5. Moreover, the “Herbicidal effects Am” value in the series on slender amaranth (Am) [1] (dose 6.3 g ai/10 a) and in the series with slender amaranth (Am) [2] was 5 each time. Further, the “Herbicidal effects Se” value in the series on green foxtail (Se) (dose 6.3 g ai/10 a) is on record as 5. Besides, the “Herbicidal effects Ci” value with rice flatsedge (Ci) was found to be 5. Also, in the series on pale smartweed (Po), the “Herbicidal effects Po” value was determined as 5. In addition, the “Herbicidal effects Ec” value with barnyardgrass (Ec) worked out at 5. Further, the “Herbicidal effects Ch” value in series [3] was 5. For the same compound, the “Herbicidal effects Di” value with Digitaria ciliaris (Di) was 5. Further, the “Phytotoxicity Ze” value with corn (Ze) (dose 6.3 g ai/10a) was 1.

On to `CCOC(=O)CON=Cc1cc(-c2ccc(C(F)(F)F)n(C)c2=O)c(F)cc1Cl` [Compound 1-191], for which the “Herbicidal effects Ab” value in the series on China jute (Ab) (dose 6.3 g ai/10 a) was determined as 5. Further, the “Herbicidal effects Am” value in the series on slender amaranth (Am) [1] (dose 6.3 g ai/10 a) and in the series with slender amaranth (Am) [2] was 5 each time. For the same compound, in the series with green foxtail (Se) (dose 6.3 g ai/10 a), the “Herbicidal effects Se” value stood at 5. The “Herbicidal effects Ci” value with rice flatsedge (Ci) is 5. Besides, the “Herbicidal effects Po” value with pale smartweed (Po) came out at 5. Also, the “Herbicidal effects Ec” value with barnyardgrass (Ec) is reported as 5. The “Herbicidal effects Ch” value in [3] came out at 5. The “Herbicidal effects Di” value in the series on Digitaria ciliaris (Di) was 5. In addition, the “Phytotoxicity Ze” value with corn (Ze) (dose 6.3 g ai/10a) is 1.

Consider `C=CC(O)c1cc(-c2ccc(C(F)(F)F)n(C)c2=O)c(F)cc1Cl` (centres unmarked) [Compound 1-197], for which the “Herbicidal effects Ab” value with China jute (Ab) (dose 6.3 g ai/10 a) is recorded as 5. Moreover, the “Herbicidal effects Am” value in the series with slender amaranth (Am) [1] (dose 6.3 g ai/10 a) and in the series on slender amaranth (Am) [2] was 5 each time. Also, the “Herbicidal effects Se” value with green foxtail (Se) (dose 6.3 g ai/10 a) came to 5. Also, in the series on rice flatsedge (Ci), the “Herbicidal effects Ci” value was 5. The “Herbicidal effects Po” value with pale smartweed (Po) turned out to be 5. In addition, the “Herbicidal effects Ec” value in the series with barnyardgrass (Ec) was found to be 5. Further, the “Herbicidal effects Ch” value in series [3] is 5. The “Herbicidal effects Di” value with Digitaria ciliaris (Di) is 5. In addition, the “Phytotoxicity Ze” value in the series on corn (Ze) (dose 6.3 g ai/10a) was found to be 1.

For `C#CC(O)c1cc(-c2ccc(C(F)(F)F)n(C)c2=O)c(F)cc1Cl` (centres unmarked) [Compound 1-202], the “Herbicidal effects Ab” value in the series with China jute (Ab) (dose 1.6 g ai/10 a) and with China jute (Ab) (dose 6.3 g ai/10 a) was 5 throughout. For the same compound, the “Herbicidal effects Am” value in the series on slender amaranth (Am) [1] (dose 1.6 g ai/10 a), with slender amaranth (Am) [1] (dose 6.3 g ai/10 a) and in the series with slender amaranth (Am) [2] was 5 throughout. Besides, the “Herbicidal effects Se” value in the series on green foxtail (Se) (dose 1.6 g ai/10 a) and with green foxtail (Se) (dose 6.3 g ai/10 a) was 5 throughout. In addition, the “Herbicidal effects Ci” value in the series with rice flatsedge (Ci) came out at 5. The “Herbicidal effects Po” value in the series with pale smartweed (Po) stood at 5. In addition, the “Herbicidal effects Ec” value in the series on barnyardgrass (Ec) was determined as 5. The “Herbicidal effects Ch” value in [3] is on record as 5. Moreover, the “Herbicidal effects Di” value in the series with Digitaria ciliaris (Di) was determined as 5. The “Phytotoxicity Ze” value in the series with corn (Ze) (dose 1.6 g ai/10a) came out at 1.

As for `CSCOc1cc(-c2ccc(C(F)(F)F)n(C)c2=O)c(F)cc1Cl` [Compound 1-208], in the series with China jute (Ab) (dose 6.3 g ai/10 a), the “Herbicidal effects Ab” value is recorded as 5. Besides, the “Herbicidal effects Am” value in the series on slender amaranth (Am) [1] (dose 6.3 g ai/10 a) and with slender amaranth (Am) [2] was 5 in each case. Also, the “Herbicidal effects Se” value in the series with green foxtail (Se) (dose 6.3 g ai/10 a) was found to be 5. Besides, in the series with rice flatsedge (Ci), the “Herbicidal effects Ci” value is recorded as 5. Moreover, the “Herbicidal effects Po” value in the series on pale smartweed (Po) is 5. Also, the “Herbicidal effects Ec” value in the series with barnyardgrass (Ec) is 5. For the same compound, in [3], the “Herbicidal effects Ch” value worked out at 5. Besides, the “Herbicidal effects Di” value in the series with Digitaria ciliaris (Di) is listed as 5. Further, the “Phytotoxicity Ze” value with corn (Ze) (dose 6.3 g ai/10a) was 1.

As for `C#CCN1C(=O)COc2cc(Cl)c(-c3ccc(C(F)(F)F)n(C)c3=O)cc21` [Compound 2-25], the “Herbicidal effects Ab” value in the series with China jute (Ab) (dose 1.6 g ai/10 a) and in the series with China jute (Ab) (dose 6.3 g ai/10 a) was 5 in each case. The “Herbicidal effects Am” value in the series on slender amaranth (Am) [1] (dose 1.6 g ai/10 a), in the series on slender amaranth (Am) [1] (dose 6.3 g ai/10 a) and with slender amaranth (Am) [2] was 5 throughout. Also, the “Herbicidal effects Se” value in the series on green foxtail (Se) (dose 1.6 g ai/10 a) and in the series on green foxtail (Se) (dose 6.3 g ai/10 a) was 5 throughout. Moreover, the “Herbicidal effects Ci” value in the series with rice flatsedge (Ci) came out at 5. The “Herbicidal effects Po” value with pale smartweed (Po) is 5. The “Herbicidal effects Ec” value with barnyardgrass (Ec) is listed as 5. The “Herbicidal effects Ch” value in series [3] amounted to 5. The “Herbicidal effects Di” value with Digitaria ciliaris (Di) came to 5. Moreover, the “Phytotoxicity Ze” value in the series on corn (Ze) (dose 1.6 g ai/10a) came to 1.

In the case of `C=CCN1C(=O)COc2cc(Cl)c(-c3ccc(C(F)(F)F)n(C)c3=O)cc21` [Compound 2-26], in the series with China jute (Ab) (dose 6.3 g ai/10 a), the “Herbicidal effects Ab” value is given as 5. In addition, the “Herbicidal effects Am” value in the series on slender amaranth (Am) [1] (dose 6.3 g ai/10 a) and in the series with slender amaranth (Am) [2] was 5 throughout. In addition, the “Herbicidal effects Se” value in the series with green foxtail (Se) (dose 6.3 g ai/10 a) came to 5. Further, the “Herbicidal effects Ci” value in the series on rice flatsedge (Ci) is reported as 5. In addition, in the series on pale smartweed (Po), the “Herbicidal effects Po” value was 5. For the same compound, in the series with barnyardgrass (Ec), the “Herbicidal effects Ec” value was 5. The “Herbicidal effects Ch” value in [3] is given as 5. Further, the “Herbicidal effects Di” value in the series with Digitaria ciliaris (Di) was determined as 5. Also, the “Phytotoxicity Ze” value in the series with corn (Ze) (dose 6.3 g ai/10a) is 1.

As to `Cc1cc2c(-c3ccc(C(F)(F)F)n(C)c3=O)c(F)cc(Cl)c2o1` [Compound 4-1], the “Herbicidal effects Ab” value with China jute (Ab) (dose 1.6 g ai/10 a) and in the series on China jute (Ab) (dose 6.3 g ai/10 a) was 5 in each case. Also, the “Herbicidal effects Am” value in the series with slender amaranth (Am) [1] (dose 1.6 g ai/10 a), in the series with slender amaranth (Am) [1] (dose 6.3 g ai/10 a) and with slender amaranth (Am) [2] was 5 throughout. Further, the “Herbicidal effects Se” value in the series on green foxtail (Se) (dose 1.6 g ai/10 a) and in the series with green foxtail (Se) (dose 6.3 g ai/10 a) was 5 in each case. Moreover, the “Herbicidal effects Ci” value in the series on rice flatsedge (Ci) worked out at 5. Further, the “Herbicidal effects Po” value in the series on pale smartweed (Po) is reported as 5. The “Herbicidal effects Ec” value in the series with barnyardgrass (Ec) is given as 5. Further, in [3], the “Herbicidal effects Ch” value is on record as 5. In addition, the “Herbicidal effects Di” value in the series with Digitaria ciliaris (Di) is given as 5. Also, the “Phytotoxicity Ze” value in the series with corn (Ze) (dose 1.6 g ai/10a) was determined as 0; in the series with corn (Ze) (dose 6.3 g ai/10a), 1.

For `CCc1cc2c(-c3ccc(C(F)(F)F)n(C)c3=O)c(F)cc(Cl)c2o1` [Compound 4-2], the “Herbicidal effects Ab” value in the series with China jute (Ab) (dose 1.6 g ai/10 a) and with China jute (Ab) (dose 6.3 g ai/10 a) was 5 throughout. Further, the “Herbicidal effects Am” value in the series on slender amaranth (Am) [1] (dose 1.6 g ai/10 a), in the series with slender amaranth (Am) [1] (dose 6.3 g ai/10 a) and in the series on slender amaranth (Am) [2] was 5 each time. The “Herbicidal effects Se” value in the series with green foxtail (Se) (dose 1.6 g ai/10 a) and in the series on green foxtail (Se) (dose 6.3 g ai/10 a) was 5 throughout. In the series on rice flatsedge (Ci), the “Herbicidal effects Ci” value is listed as 5. The “Herbicidal effects Po” value with pale smartweed (Po) was 5. Further, in the series with barnyardgrass (Ec), the “Herbicidal effects Ec” value is given as 5. In addition, the “Herbicidal effects Ch” value in series [3] was determined as 5. Also, the “Herbicidal effects Di” value in the series on Digitaria ciliaris (Di) is given as 5. Moreover, the “Phytotoxicity Ze” value in the series on corn (Ze) (dose 1.6 g ai/10a) and in the series with corn (Ze) (dose 6.3 g ai/10a) was 1 each time.
